In general, IC50 refers to the point on the concentration scale where inhibition reaches its midpoint.

Where two headings read alike, the source gives them in different places.

Results on 27 compounds are retold here after US20250019387A1 (Frontier Medicines Corporation, priority 0001, published 2025).

The target in the assay is KRAS G12C and cRAF (Ras-binding domain) interaction (Homo sapiens (Human), UniProt P01116, C118S/C51S/C80L/G12C). In words: Inhibition of KRAS G12C and cRAF binding (AlphaScreen). In short, it runs like this: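 Compounds (DMSO) preincubated 19-20 h at room temperature, then RBD with streptavidin donor and glutathione acceptor beads added in 25 mM Hepes pH 7.4, 150 mM NaCl, 5 mM MgCl2, 0.01% Triton X-100, 2% DMSO for 60-90 min. Emission 570 nm (excitation 680 nm); IC50 by 4-parameter fit. Counter-screen used biotin-AviTag-GST instead of RBD.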
Chain of KRAS G12C and cRAF (Ras-binding domain) interaction (P01116 other isoform, or with tags, fused parts or gaps G12C/C51S/C80L/C118S): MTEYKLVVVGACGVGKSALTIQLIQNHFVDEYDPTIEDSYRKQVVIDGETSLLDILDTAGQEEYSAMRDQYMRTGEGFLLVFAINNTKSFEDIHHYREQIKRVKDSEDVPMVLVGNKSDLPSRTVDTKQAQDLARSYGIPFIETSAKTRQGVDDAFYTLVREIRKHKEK
(In general: Bead proximity is the source of the signal in Alpha formats.)

Where [1] appears, read: GMPPNP-loaded KRAS G12C, 19-20 hours incubation with compound, read-out: IC50 (Inhibition of KRAS G12C and cRAF Binding).
Setting [2] is: additional exemplary compounds, KRAS G12C and cRAF binding, read-out: RAF1 RBD IC50.

For the compound `Cc1cc(/C=C/C(=O)N2CC[C@@H](N(C)c3nc(OC[C@@]45CCCN4C[C@H](F)C5)nc4c(F)c(-c5cccc6ccc(F)c(F)c56)ncc34)C2)nc(C)n1` [Example 203, (E)-1-((R)-3-((7-(7,8-difluoronaphthalen-1-yl)-8-fluoro-2-(((2R,7aS)-2-fluorohexahydro-1H-pyrrolizin-7a-yl)methoxy)pyrido[4,3-d]pyrimidin-4-yl)(methyl)amino)pyrrolidin-1-yl)-3-(2,6-dimethylpyrimidin-4-yl)prop-2-en-1-one], the IC50 under setting [1] was 10 to 100 nM.
Turning to `CN1CC[C@@H]1/C=C/C(=O)N1C[C@H](F)[C@@H](N(C)c2nc(OC[C@@]34CCCN3C[C@H](F)C4)nc3c(F)c(-c4cccc5ccc(F)c(F)c45)ncc23)C1` [Example 199, (E)-1-((3S,4S)-3-((7-(7,8-difluoronaphthalen-1-yl)-8-fluoro-2-(((2R,7aS)-2-fluorotetrahydro-1H-pyrrolizin-7a(5H)-yl)methoxy)pyrido[4,3-d]pyrimidin-4-yl)(methyl)amino)-4-fluoropyrrolidin-1-yl)-3-((R)-1-methylazetidin-2-yl)prop-2-en-1-one], the IC50 under setting [1] was less than 10 nM.
Turning to `CN(CC1CN(C(=O)/C=C/c2nc(C3CC3)no2)C1)c1nc(OC[C@@]23CCCN2C[C@H](F)C3)nc2c(F)c(-c3cccc4cccc(Cl)c34)ncc12` [Example 104, (E)-1-(3-(((7-(8-chloronaphthalen-1-yl)-8-fluoro-2-(((2R,7aS)-2-fluorotetrahydro-1H-pyrrolizin-7a(5H)-yl)methoxy)pyrido[4,3-d]pyrimidin-4-yl)(methyl)amino)methyl)azetidin-1-yl)-3-(3-cyclopropyl-1,2,4-oxadiazol-5-yl)prop-2-en-1-one], the IC50 under setting [1] was 100 to 500 nM.
As for `CN(c1nc(OCC23CCCN2CCC3)nc2c(F)c(-c3cccc4cccc(Cl)c34)ncc12)[C@@H]1CCN(C(=O)/C=C/c2ncn(C)n2)C1`, the IC50 under setting [2] is more than 500 nM.
On the same count and under the same terms, the result for `C=CC(=O)[C@@H](C)CN(C)c1nc(OC[C@@H]2CCCN2C)nc2c1CCN(c1cccc3ccccc13)C2` reads 10 to 100 nM.
With `C=CC(=O)N1CC[C@@H](N(C)c2nc(OC[C@]34CCCN3C[C@H](F)C4)nc3c(F)c(-c4cccc5ccc(F)c(Cl)c45)ncc23)C1` [Example 81, 1-((R)-3-((7-(8-chloro-7-fluoronaphthalen-1-yl)-8-fluoro-2-(((2R,7aR)-2-fluorotetrahydro-1H-pyrrolizin-7a(5H)-yl)methoxy)pyrido[4,3-d]pyrimidin-4-yl)(methyl)amino)pyrrolidin-1-yl)prop-2-en-1-one], the IC50 under setting [1] is 10 to 100 nM.
For `C=CC(=O)N1CC[C@@H](N(C)c2nc(OC[C@@]34CCCN3C[C@H](F)C4)nc3c(F)c(-c4cc(C(F)F)cc5ccccc45)ncc23)C1`, the IC50 under setting [2] was more than 500 nM.
Turning to `C=CC(=O)N1CC[C@@H](N(C)c2nc(OC[C@@]34CCCN3C[C@H](F)C4)nc3c(F)c(-c4cc(OC(F)F)cc5cccc(Cl)c45)ncc23)C1` [Example 82, 1-((R)-3-((7-(8-chloro-3-(difluoromethoxy)naphthalen-1-yl)-8-fluoro-2-(((2R,7aS)-2-fluorotetrahydro-1H-pyrrolizin-7a(5H)-yl)methoxy)pyrido[4,3-d]pyrimidin-4-yl)(methyl)amino)pyrrolidin-1-yl)prop-2-en-1-one], the IC50 under setting [1] is more than 500 nM.
For `CN(CC1CN(C(=O)/C=C/c2nc(C(C)(C)O)no2)C1)c1nc(OCC23CCCN2CCC3)nc2c(F)c(-c3cccc4ccc(F)c(Cl)c34)ncc12` [Example 229, (E)-1-(3-(((7-(8-chloro-7-fluoronaphthalen-1-yl)-8-fluoro-2-((tetrahydro-1H-pyrrolizin-7a(5H)-yl)methoxy)pyrido[4,3-d]pyrimidin-4-yl)(methyl)amino)methyl)azetidin-1-yl)-3-(3-(2-hydroxypropan-2-yl)-1,2,4-oxadiazol-5-yl)prop-2-en-1-one], the IC50 under setting [1] is less than 10 nM.
On the same count and under the same terms, as for `C=CC(=O)N1CC[C@@H](N(CC2CC2)c2nc(OC[C@@]34CCCN3C[C@H](F)C4)nc3c(F)c(-c4cccc5cccc(Cl)c45)ncc23)C1` [Example 250, 1-((R)-3-((7-(8-chloronaphthalen-1-yl)-8-fluoro-2-(((2R,7aS)-2-fluorohexahydro-1H-pyrrolizin-7a-yl)methoxy)pyrido[4,3-d]pyrimidin-4-yl)(cyclopropylmethyl)amino)pyrrolidin-1-yl)prop-2-en-1-one], the figure is 100 to 500 nM.
As for `C=CC(=O)N1CCC[C@@H](Nc2nc(OC[C@@]34CCCN3C[C@H](F)C4)nc3c(F)c(-c4cccc5cccc(Cl)c45)ncc23)C1`, under setting [2], the IC50 is more than 500 nM.
In the case of `CN(C)C/C=C/C(=O)N1CC[C@@H](N(C)c2nc(OC[C@@]34CCCN3C[C@H](F)C4)nc3c(F)c(-c4cccc5ccc(F)c(Cl)c45)ncc23)C1`, under setting [2], the IC50 fell in the range of 10 to 100 nM.
Same read-out and setting: as for `C=CC(=O)COc1nc(OC[C@@H]2CCCN2C)nc2c1CCN(c1cccc3ccccc13)C2`, the figure is more than 500 nM.
In the case of `Cc1nc(/C=C/C(=O)NCCN(C)c2nc(OCC34CCCN3CCC4)nc3c2CCN(c2cccc4cccc(Cl)c24)C3)no1`, the IC50 under setting [2] is more than 500 nM.
Turning to `Cc1nsc(/C=C/C(=O)N2CC[C@@H](N(C)c3nc(OCC45CCCN4CCC5)nc4c(F)c(-c5cccc6cccc(Cl)c56)ncc34)C2)n1` [Example 138, (R,E)-1-(3-((7-(8-chloronaphthalen-1-yl)-8-fluoro-2-((tetrahydro-1H-pyrrolizin-7a(5H)-yl)methoxy)pyrido[4,3-d]pyrimidin-4-yl)(methyl)amino)pyrrolidin-1-yl)-3-(3-methyl-1,2,4-thiadiazol-5-yl)prop-2-en-1-one], under setting [1], the half-inhibitory concentration (IC50) lay within 10 to 100 nM.
Still for that read-out and setting: as for `CN(c1nc(OC[C@@]23CCCN2C[C@H](F)C3)nc2c1CCN(c1cccc3cccc(Cl)c13)C2)[C@@H]1CCN(C(=O)/C=C/c2nc(C3COC3)no2)C1` [Example 154, (E)-1-((R)-3-((7-(8-chloronaphthalen-1-yl)-2-(((2R,7aS)-2-fluorohexahydro-1H-pyrrolizin-7a-yl)methoxy)-5,6,7,8-tetrahydropyrido[3,4-d]pyrimidin-4-yl)(methyl)amino)pyrrolidin-1-yl)-3-(3-(oxetan-3-yl)-1,2,4-oxadiazol-5-yl)prop-2-en-1-one], the figure is less than 10 nM.
On to `C=CC(=O)N1CC(N(C)c2nc(OC[C@@]34CCCN3C[C@H](F)C4)nc3c2CCN(c2cccc4cccc(Cl)c24)C3)C1`, for which the IC50 under setting [2] was more than 500 nM.
Still for that read-out and setting: as for `C=CC(=O)N1CCC(N(c2nc(OC[C@@]34CCCN3C[C@H](F)C4)nc3c2CCN(c2cccc4cccc(Cl)c24)C3)C2CC2)C1` (stereo partly drawn), the figure is more than 500 nM.
On to `CN(c1nc(OCC23CCCN2CCC3)nc2c1CCN(c1cccc3cccc(Cl)c13)C2)[C@@H]1CCN(C(=O)/C=C/c2nc(C3(C)CC3)no2)C1` [Example 128, (R,E)-1-(3-((7-(8-chloronaphthalen-1-yl)-2-((hexahydro-1H-pyrrolizin-7a-yl)methoxy)-5,6,7,8-tetrahydropyrido[3,4-d]pyrimidin-4-yl)(methyl)amino)pyrrolidin-1-yl)-3-(3-(1-methylcyclopropyl)-1,2,4-oxadiazol-5-yl)prop-2-en-1-one], for which the IC50 under setting [1] lay within 100 to 500 nM.
As for `CC(C)N1CC[C@@H]1/C=C/C(=O)N1CC[C@@H](N(C)c2nc(OC[C@@]34CCCN3C[C@H](F)C4)nc3c(F)c(-c4cccc5ccc(F)c(Cl)c45)ncc23)C1` [Example 211, (E)-1-((R)-3-((7-(8-chloro-7-fluoronaphthalen-1-yl)-8-fluoro-2-(((2R,7aS)-2-fluorotetrahydro-1H-pyrrolizin-7a(5H)-yl)methoxy)pyrido[4,3-d]pyrimidin-4-yl)(methyl)amino)pyrrolidin-1-yl)-3-((R)-1-isopropylazetidin-2-yl)prop-2-en-1-one], under setting [1], the IC50 lay in the range of 10 to 100 nM.
The same measure, in the same setting: as for `Cc1c(F)ccc2cccc(-c3ncc4c(N(C)[C@@H]5CCN(C(=O)/C=C/[C@H]6CCN6C)C5)nc(OC[C@@]56CCCN5C[C@H](F)C6)nc4c3F)c12` [Example 206, (E)-1-((R)-3-((8-fluoro-7-(7-fluoro-8-methylnaphthalen-1-yl)-2-(((2R,7aS)-2-fluorotetrahydro-1H-pyrrolizin-7a(5H)-yl)methoxy)pyrido[4,3-d]pyrimidin-4-yl)(methyl)amino)pyrrolidin-1-yl)-3-((R)-1-methylazetidin-2-yl)prop-2-en-1-one], the figure is 10 to 100 nM; as for `CN(c1nc(OC[C@@H]2CCCN2C)nc2c1CCN(c1cccc3cccc(Cl)c13)C2)C1CCN(C#N)C1` (stereo partly drawn) [Example 29, 3-((7-(8-chloronaphthalen-1-yl)-2-(((S)-1-methylpyrrolidin-2-yl)methoxy)-5,6,7,8-tetrahydropyrido[3,4-d]pyrimidin-4-yl)(methyl)amino)pyrrolidine-1-carbonitrile], 100 to 500 nM.
Regarding `C=CC(=O)N1CC(CN(C)c2nc(OCC34CCCN3CCC4)nc3c2CCN(c2cccc4cccc(Cl)c24)C3)C1`, the IC50 under setting [2] was 100 to 500 nM.
For `C=CC(=O)N1CC[C@@H](N(C)c2nc(OCC34CCCN3CCC4)nc3c(F)c(-c4cccc5cccc(Cl)c45)ncc23)C1`, the IC50 under setting [2] fell in the range of 100 to 500 nM.
Same read-out and setting: the result for `Cc1cc(/C=C/C(=O)N2CC[C@@H](N(C)c3nc(OCC45CCCN4CCC5)nc4c(F)c(-c5cccc6cccc(Cl)c56)ncc34)C2)on1` reads more than 500 nM; that for `C=CC(=O)N1CC[C@H](O)[C@@H](N(C)c2nc(OC[C@@]34CCCN3C[C@H](F)C4)nc3c(F)c(-c4cccc5cccc(Cl)c45)ncc23)C1`, 10 to 100 nM.
Take `CN(CC1CN(C#N)C1)c1nc(OCC23CCCN2CCC3)nc2c(F)c(-c3cccc4cccc(Cl)c34)ncc12` [Example 28, 3-(((7-(8-chloronaphthalen-1-yl)-8-fluoro-2-((tetrahydro-1H-pyrrolizin-7a(5H)-yl)methoxy)pyrido[4,3-d]pyrimidin-4-yl)(methyl)amino)methyl)azetidine-1-carbonitrile]: the IC50 under setting [1] fell in the range of 10 to 100 nM.
